Active and inactive are the calls of the source. No rule for the calls is given here.

The values below come from PubChem BioAssay AID1117348 (Cheminformatics & Chemogenomics Research Group (CCRG), …, 2015).

This assay relates to HeLa cell cycle, increased S-phase population. Kind of assay: HeLa S-phase population increase, dose response, cell-based, IC50 (AID 1117348).
With `O=C(Nc1ccc(Br)cc1)c1cc(Br)cc(Br)c1O`, the IC50 was > 10 µM (inactive). For `Cc1ccc2nc(N)[nH]c(=O)c2c1Sc1ccncc1`, the IC50 was > 10 µM (inactive). Consider `CC(=O)[C@]1(O)Cc2c(O)c3c(c(O)c2[C@@H](O[C@H]2C[C@H](N)[C@H](O)[C@H](C)O2)C1)C(=O)c1ccccc1C3=O`, for which the IC50 is > 10 µM (inactive). Turning to `CC(C)(C)C(=O)OCOP(=O)(COCCn1cnc2c(N)ncnc21)OCOC(=O)C(C)(C)C`, the IC50 was 0.0608 µM. With `Cc1ccccc1C(OCCN(C)C)c1ccccc1` (configuration not stated) the figure was > 10 µM (inactive); with `O=Cc1ccc(O)c(O)c1O`, > 10 µM (inactive). Consider `CCCCCCCCCCCC(=O)[O][Sn]([CH2]CCC)([CH2]CCC)[O]C(=O)CCCCCCCCCCC`, for which the IC50 is > 10 µM (inactive).

In the case of `CN(Cc1cnc2nc(N)nc(N)c2n1)c1ccc(C(=O)N[C@@H](CCC(=O)O)C(=O)O)cc1`, the IC50 was > 10 µM (inactive). Regarding `O=C(O)CN(CCN(CC(=O)O)CC(=O)O)CCN(CC(=O)O)CC(=O)O`, the IC50 was > 10 µM (inactive). `COc1ccc(-c2nc3ccc(C4=NNC(=O)CC4C)cc3[nH]2)cc1` (configuration not stated): the IC50 was > 10 µM (inactive). Take `Cc1ccc2c(c1)c1c3n2CCNC3CCC1` (configuration not stated): the IC50 was > 10 µM (inactive). As to `CCN(CC)CCCC(C)Nc1c2ccc(Cl)cc2nc2ccc(OC)cc12` (configuration not stated), the IC50 is 2.26 µM. As for `O=c1[nH]c(=O)n([C@H]2C[C@H](O)[C@@H](CO)O2)cc1Br`, the figure is > 10 µM (inactive). Take `O=c1[nH]cc(F)c(=O)[nH]1`: the IC50 was > 10 µM (inactive).

Take `COC(=O)Nc1nc2ccc(Sc3ccccc3)cc2[nH]1`: the IC50 is > 10 µM (inactive).

Turning to `C[n+]1c2cc(N)ccc2cc2ccc(N)cc21` (tested in a mixture with another compound), the IC50 was 1.96 µM. As for `Cc1cc2c(C(C)C)c(O)c(O)c(C=O)c2c(O)c1-c1c(C)cc2c(C(C)C)c(O)c(O)c(C=O)c2c1O`, the figure is > 10 µM (inactive); as for `Cc1cc(CC(C)CC(C)(C)C)n(O)c(=O)c1` (configuration not stated), > 10 µM (inactive).

Regarding `CC(C)=CCNc1ncnc2c1ncn2[C@@H]1O[C@H](CO)[C@@H](O)[C@H]1O`, the IC50 is > 10 µM (inactive).

On to `COc1cccc2c1C(=O)c1c(O)c3c(c(O)c1C2=O)C[C@@](O)(C(C)=O)C[C@@H]3O[C@H]1C[C@H](N)[C@H](O)[C@H](C)O1`, for which the IC50 is 9.6 µM (inactive).

Turning to `NCCCC[C@H](N[C@@H](CCc1ccccc1)C(=O)O)C(=O)N1CCC[C@H]1C(=O)O`, the IC50 is > 10 µM (inactive). With `Nc1nc(=O)n([C@@H]2O[C@H](CO)[C@@H](O)[C@@H]2F)cc1I` the figure was > 10 µM (inactive).

Consider `Cc1cc(N)c2ccccc2[n+]1CCCCCCCCCC[n+]1c(C)cc(N)c2ccccc21`, for which the IC50 was > 10 µM (inactive).

Take `CCN1/C(=C/C=C/c2sc3ccccc3[n+]2CC)Sc2ccccc21`: the IC50 was > 10 µM (inactive). As for `Cc1ccc(S(=O)(=O)NC(=O)NN2CC3CCCC3C2)cc1` (configuration not stated), the figure is > 10 µM (inactive); as for `CC[C@H](C)C(=O)O[C@H]1C[C@@H](C)C=C2C=C[C@H](C)[C@H](CC[C@@H]3C[C@@H](O)CC(=O)O3)[C@H]21`, > 10 µM (inactive); as for `CC(=O)Oc1ccccc1C(=O)Nc1ncc([N+](=O)[O-])s1`, > 10 µM (inactive). As to `CC(=O)Nc1ccn(C2COC(COC(=O)c3ccccc3)O2)c(=O)n1` (configuration not stated), the IC50 is 0.312 µM. For `C=CC(=O)Nc1cc2c(Nc3ccc(F)c(Cl)c3)ncnc2cc1OCCCN1CCOCC1`, the IC50 is > 10 µM (inactive). Take `NC(N)=NN=C(/C=C/c1ccc([N+](=O)[O-])o1)/C=C/c1ccc([N+](=O)[O-])o1`: the IC50 is > 10 µM (inactive). As to `CCCCCCCCCCCCCCCC[n+]1ccccc1`, the IC50 was > 10 µM (inactive). Consider `CC(CC1c2ccccc2CCc2ccccc21)CN(C)C` (configuration not stated), for which the IC50 is > 10 µM (inactive).
